# Data published in ChEMBL document CHEMBL1136348, “Advances toward new antidepressants beyond SSRIs: 1-aryloxy-3-piperidinylpropan-2-ols with dual 5-HT1A receptor antagonism/SSRI activities. Part 3” (Bioorg Med Chem Lett, 2003).
# Key:
# [1] = molecular target: T1, 5-hydroxytryptamine receptor 1A (Homo sapiens, UniProt P08908); assay: Binding affinity towards 5-hydroxytryptamine 1A receptor in human using [3H]8-OH-DPAT as radioligand
# T1 sequence (P08908 whole entry): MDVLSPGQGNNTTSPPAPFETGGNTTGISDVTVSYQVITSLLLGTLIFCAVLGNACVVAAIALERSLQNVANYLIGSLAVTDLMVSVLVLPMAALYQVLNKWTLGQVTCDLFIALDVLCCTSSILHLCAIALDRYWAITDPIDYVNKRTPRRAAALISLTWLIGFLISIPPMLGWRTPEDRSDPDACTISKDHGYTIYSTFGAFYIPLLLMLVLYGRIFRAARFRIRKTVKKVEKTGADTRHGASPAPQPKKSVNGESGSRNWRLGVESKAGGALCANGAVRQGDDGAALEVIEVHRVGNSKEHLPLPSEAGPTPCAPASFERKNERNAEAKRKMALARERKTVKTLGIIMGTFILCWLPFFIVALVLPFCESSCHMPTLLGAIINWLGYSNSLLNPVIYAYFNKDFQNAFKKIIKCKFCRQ
# [2] = molecular target: T2, 5-hydroxytryptamine receptor 1A (Homo sapiens) (UniProt P08908); assay: Maximal stimulation of expressed human 5-hydroxytryptamine 1A receptor assayed by [35S]GTP-gamma-S, binding; type: functional
# T2 sequence (whole entry): T1 sequence (P08908 whole entry)
# [3] = molecular target: Sodium-dependent serotonin transporter (Rattus norvegicus, UniProt P31652); assay: Affinity at the 5-HT reuptake site labeled with [3H]paroxetine using rat frontal cortex membranes; type: tissue-based, Membrane
# Chain of Sodium-dependent serotonin transporter (P31652 whole entry): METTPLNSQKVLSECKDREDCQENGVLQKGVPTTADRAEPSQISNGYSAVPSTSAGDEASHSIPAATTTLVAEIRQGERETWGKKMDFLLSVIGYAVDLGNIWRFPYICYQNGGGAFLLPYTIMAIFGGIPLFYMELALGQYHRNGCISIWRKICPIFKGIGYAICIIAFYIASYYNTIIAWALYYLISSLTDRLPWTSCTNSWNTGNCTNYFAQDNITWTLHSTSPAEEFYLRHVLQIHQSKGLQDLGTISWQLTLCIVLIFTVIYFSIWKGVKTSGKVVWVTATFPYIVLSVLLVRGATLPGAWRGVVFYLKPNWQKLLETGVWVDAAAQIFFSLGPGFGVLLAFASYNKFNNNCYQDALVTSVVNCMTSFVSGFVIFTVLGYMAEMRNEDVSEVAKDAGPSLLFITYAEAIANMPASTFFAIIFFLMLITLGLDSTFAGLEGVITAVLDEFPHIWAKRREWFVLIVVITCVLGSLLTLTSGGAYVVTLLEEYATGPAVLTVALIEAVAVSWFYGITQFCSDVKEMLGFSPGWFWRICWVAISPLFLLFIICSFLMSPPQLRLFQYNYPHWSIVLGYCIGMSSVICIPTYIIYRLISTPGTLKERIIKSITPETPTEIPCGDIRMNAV
smiles,measurement,setting,value
COc1cccc2sc([C@@H]3CCN(C[C@H](O)COc4cccc5[nH]c(C)cc45)[C@H](C)C3)cc12,Ki,[1],20.2 nM
same,Emax,[2],1.8%
same,Ki,[3],29 nM
Cc1cc2c(OC[C@@H](O)CN3CC[C@H](c4cc5cccc(F)c5s4)C[C@@H]3C)cccc2[nH]1,Ki,[1],19.4 nM
same,Ki,[3],47.5 nM
Cc1cc2c(OC[C@@H](O)CN3CC[C@@H](c4cc5cc(Cl)ccc5s4)C[C@@H]3C)cccc2[nH]1,Ki,[1],15.7 nM
same,Emax,[2],8.42%
same,Ki,[3],1.02 nM
COc1cccc2sc([C@H]3CCN(C[C@H](O)COc4cccc5[nH]c(C(N)=O)cc45)[C@H](C)C3)cc12,Ki,[1],32 nM
same,Ki,[3],1.22 nM
Cc1cc2c(OC[C@@H](O)CN3CC[C@@H](c4cc5c(C)cccc5s4)C[C@@H]3C)cccc2[nH]1,Ki,[1],10.5 nM
same,Emax,[2],6.32%
same,Ki,[3],0.62 nM
COc1cccc2sc([C@H]3C[C@H]4CC[C@@H](C3)N4C[C@H](O)COc3cccc4[nH]ccc34)cc12,Ki,[3],0.17 nM
Cc1cc(C)c2cc([C@@H]3CCN(C[C@H](O)COc4cccc5[nH]c(C)cc45)[C@@H](C)C3)sc2c1,Ki,[1],105 nM
same,Ki,[3],1.99 nM
COc1cccc2sc([C@@H]3CCN(C[C@H](O)COc4cccc5oc(C)cc45)[C@H](C)C3)cc12,Ki,[1],4.84 nM
same,Ki,[3],110 nM
COc1cccc2sc(C3CCN(C[C@H](O)COc4cccc5[nH]c(C)cc45)C(C)(C)C3)cc12 (stereo in doubt; 29),Ki,[1],42.8 nM
same,Ki,[3],20.5 nM
COc1cccc2sc(C3CCN(C[C@H](O)COc4cccc5[nH]c(C)cc45)C(C)(C)C3)cc12 (stereo in doubt; 28),Ki,[1],9.42 nM
same,Ki,[3],118 nM
COc1cccc2sc([C@H]3CCN(C[C@H](O)COc4cccc5oc(C)cc45)[C@@H](C)C3)cc12,Ki,[3],76.1 nM
COc1cccc2sc([C@@H]3CCN(C[C@H](O)COc4cccc5[nH]c(C(N)=O)cc45)[C@@H](C)C3)cc12,Ki,[1],6.36 nM
same,Emax,[2],12.8%
same,Ki,[3],0.56 nM
COc1ccc2cc([C@@H]3CCN(C[C@H](O)COc4cccc5[nH]c(C)cc45)[C@@H](C)C3)sc2c1,Ki,[1],13.5 nM
same,Emax,[2],3.21%
same,Ki,[3],2.37 nM
Cc1cc2c(OC[C@@H](O)CN3CC[C@@H](c4cc5cccc(F)c5s4)C[C@@H]3C)cccc2[nH]1,Ki,[1],1.34 nM
same,Emax,[2],4.09%
same,Ki,[3],1.29 nM
Cc1cc2c(OC[C@@H](O)CN3CC[C@@H](c4cc5cc(F)ccc5s4)C[C@@H]3C)cccc2[nH]1,Ki,[1],5.65 nM
same,Emax,[2],9.05%
same,Ki,[3],0.24 nM
Cc1cc2c(OC[C@@H](O)CN3CC[C@H](c4cc5cccc(F)c5s4)C[C@H]3C)cccc2[nH]1,Ki,[1],9.8 nM
same,Emax,[2],6.35%
same,Ki,[3],6.06 nM
Cc1cc2c(OC[C@@H](O)CN3CC[C@@H](c4cc5ccc(F)cc5s4)C[C@@H]3C)cccc2[nH]1,Ki,[1],12.3 nM
same,Emax,[2],7.26%
same,Ki,[3],0.39 nM
COc1cc(OC)c2cc([C@@H]3CCN(C[C@H](O)COc4cccc5[nH]c(C)cc45)[C@@H](C)C3)sc2c1,Ki,[1],23.1 nM
same,Emax,[2],7.62%
same,Ki,[3],2.79 nM
COc1cccc2sc([C@H]3CCN(C[C@H](O)COc4cccc5oc(C)cc45)[C@H](C)C3)cc12,Ki,[1],26.8 nM
same,Emax,[2],6.49%
same,Ki,[3],15.2 nM
COc1cccc2sc([C@@H]3CCN(C[C@H](O)COc4cccc5[nH]c(C)cc45)[C@@H](C)C3)cc12,Ki,[1],14.3 nM
same,Emax,[2],4.76%
same,Ki,[3],0.86 nM
COc1cccc2sc([C@H]3C[C@H]4CC[C@@H](C3)N4C[C@H](O)COc3cccc4[nH]c(C)cc34)cc12,Ki,[1],20.9 nM
same,Emax,[2],7.92%
same,Ki,[3],0.45 nM
COc1cccc2sc([C@H]3CCN(C[C@H](O)COc4cccc5[nH]c(C(N)=O)cc45)[C@@H](C)C3)cc12,Ki,[3],6.61 nM
COc1cccc2sc([C@@H]3CCN(C[C@H](O)COc4cccc5oc(C)cc45)[C@@H](C)C3)cc12,Ki,[1],4.06 nM
same,Emax,[2],8.76%
same,Ki,[3],38.5 nM
COc1cccc2sc([C@@H]3C[C@H]4CC[C@@H](C3)N4C[C@H](O)COc3cccc4[nH]c(C(N)=O)cc34)cc12,Ki,[1],12.4 nM
same,Emax,[2],11.3%
same,Ki,[3],0.37 nM
COc1cccc2sc([C@H]3CCN(C[C@H](O)COc4cccc5[nH]c(C)cc45)[C@H](C)C3)cc12,Ki,[1],28.1 nM
same,Emax,[2],2.38%
same,Ki,[3],3.3 nM
Cc1cc2c(OC[C@@H](O)CN3CC[C@@H](c4cc5ccccc5s4)C[C@@H]3C)cccc2[nH]1,Ki,[1],7.11 nM
same,Emax,[2],6.09%
same,Ki,[3],0.53 nM
Cc1ccc2cc([C@@H]3CCN(C[C@H](O)COc4cccc5[nH]c(C)cc45)[C@@H](C)C3)sc2c1,Ki,[3],1.28 nM
COc1cccc2sc([C@@H]3C[C@H]4CC[C@@H](C3)N4C[C@H](O)COc3cccc4[nH]c(C)cc34)cc12,Ki,[1],9.2 nM
same,Emax,[2],2.98%
same,Ki,[3],0.69 nM
COc1cccc2sc([C@@H]3C[C@H]4CC[C@@H](C3)N4C[C@H](O)COc3cccc4[nH]ccc34)cc12,Emax,[2],7.22%
COc1cccc2sc([C@@H]3CCN(C[C@H](O)COc4cccc5[nH]c(C(N)=O)cc45)[C@H](C)C3)cc12,Ki,[1],12.7 nM
same,Emax,[2],7.21%
same,Ki,[3],16.2 nM
Cc1cc2c(OC[C@@H](O)CN3CC[C@@H](c4cc5c(F)cccc5s4)C[C@@H]3C)cccc2[nH]1,Ki,[1],0.75 nM
same,Emax,[2],3.15%
same,Ki,[3],0.92 nM
Cc1cc2c(OC[C@@H](O)CN3CC[C@@H](c4cc5cccc(F)c5s4)C[C@H]3C)cccc2[nH]1,Ki,[1],2.12 nM
same,Ki,[3],34.4 nM
